Results as given in patent US10947242B2, “[1,2,4]triazolo[1,5and#8208;A]pyrimidine compounds as PDE2 inhibitors” (Janssen Pharmaceutica NV, priority 2016, dated 2021).
Like-named read-outs stand apart in the source and are kept apart here.

Tests used:
PDE2A = biological target: T1, PDE2A (Rattus norvegicus, UniProt Q01062); assay: PDE2 occupancy by test compounds, ex-vivo autoradiography with [3H]B-17a; format: in vivo, Male Wistar rats
T1 construct: Twenty μm-thick striatal sections were cut; from tissue; host or cells: rat brain, striatal sections
T1 sequence (Q01062 1-928): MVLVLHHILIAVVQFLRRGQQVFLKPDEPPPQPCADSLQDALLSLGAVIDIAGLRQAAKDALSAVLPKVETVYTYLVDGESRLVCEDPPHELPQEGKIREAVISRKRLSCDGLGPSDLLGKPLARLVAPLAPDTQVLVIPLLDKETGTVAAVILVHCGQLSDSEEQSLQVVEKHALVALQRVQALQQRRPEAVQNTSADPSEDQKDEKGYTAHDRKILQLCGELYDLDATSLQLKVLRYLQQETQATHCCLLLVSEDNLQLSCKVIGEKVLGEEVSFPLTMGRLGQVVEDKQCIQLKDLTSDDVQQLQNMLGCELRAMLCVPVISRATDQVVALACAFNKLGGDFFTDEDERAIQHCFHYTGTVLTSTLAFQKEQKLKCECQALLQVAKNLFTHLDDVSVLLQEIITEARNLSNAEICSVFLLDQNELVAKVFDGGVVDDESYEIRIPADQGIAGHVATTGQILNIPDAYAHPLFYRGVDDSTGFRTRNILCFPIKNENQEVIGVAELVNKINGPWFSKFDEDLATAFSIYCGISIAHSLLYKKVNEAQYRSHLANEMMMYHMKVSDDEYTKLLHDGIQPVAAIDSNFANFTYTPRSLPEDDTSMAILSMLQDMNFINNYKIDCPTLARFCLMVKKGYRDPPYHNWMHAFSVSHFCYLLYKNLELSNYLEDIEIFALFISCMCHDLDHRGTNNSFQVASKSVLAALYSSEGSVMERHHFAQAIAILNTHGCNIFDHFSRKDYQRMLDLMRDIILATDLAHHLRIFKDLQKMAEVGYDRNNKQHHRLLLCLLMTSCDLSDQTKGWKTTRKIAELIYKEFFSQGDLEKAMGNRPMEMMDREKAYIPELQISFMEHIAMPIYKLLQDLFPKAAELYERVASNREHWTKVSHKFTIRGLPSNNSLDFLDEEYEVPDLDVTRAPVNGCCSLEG

[1] = biological target: T2, Human recombinant PDE2A (hPDE2A) (Homo sapiens, UniProt O00408); assay: In vitro assay PDE2A (SPA, 3H-cGMP hydrolysis); format: biochemical; details: for Emax: read-out: hPDE2A Emax
T2 construct: His tag (inferred from metal chelate purification); made in house; host or cells: Sf9 insect cells (baculovirus)

[2] = biological target: T3, Human recombinant PDE10A (hPDE10A) (Homo sapiens, UniProt Q9Y233); assay: In vitro assay PDE10A, human clone (SPA, 3H-cAMP hydrolysis); format: biochemical
T3 construct: His tag (inferred from metal chelate purification); made in house; host or cells: Sf9 insect cells (baculovirus)
Procedure, shortened: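 Hydrolysis of 3H-cAMP (60 nM cAMP, 0.008 μCi tracer) proceeded for 60 min at room temperature, with the product detected by SPA bead scintillation counting. The enzyme was hPDE10A from baculovirus-infected Sf9 cells in Tris pH 7.8 buffer with MgCl2 and EGTA, and compounds were at 1% DMSO final. Blanks lacked enzyme.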

[3] = biological target: T4, Human recombinant PDE3A (hPDE3A) (Homo sapiens, UniProt Q14432); assay: In vitro assay PDE3A (SPA, 3H-cAMP hydrolysis); format: biochemical; details: for IC50: hPDE3B pIC50; for Emax: read-out: hPDE3B Emax;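 as to Emax: the method names PDE3A and the table heading PDE3B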
T4 construct: purchased Scottish Biomedical; host or cells: Sf9 insect cells
Procedure, shortened: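 Radiometric SPA measuring [3H]-cAMP hydrolysis (0.4 μM cAMP, 2.4 μCi/ml) over 60 min at room temperature, in Tris pH 7.8 buffer with MgCl2 and EGTA, 1% DMSO. Enzyme: recombinant human brain PDE3A expressed in Sf9 cells, used as partially purified lysate. Counts compared with enzyme-free blanks and vehicle controls.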

[4] = po, 10 mg/kg, route PO (oral), percentage receptor occupancy, ex-vivo autoradiography, striatum
[5] = human recombinant PDE2A, 10 μM cGMP substrate, read-out: hPDE2A pIC50 (converted)
[6] = read-out: hPDE2A pIC50 (converted)
[7] = human clone (h), default, read-out: hPDE10A2 Emax
[8] = human clone (h), default, read-out: hPDE10A2 pIC50 (converted)
[9] = hPDE2A pIC50, human recombinant PDE2A, 10 μM cGMP substrate
[10] = 10 mg/kg, route PO (oral), percentage receptor occupancy, ex-vivo autoradiography, striatum
[11] = human clone by default (no (r) mark), read-out: hPDE10A2 or rPDE10A2 Emax
[12] = human clone by default (no (r) mark), read-out: hPDE10A2 or rPDE10A2 pIC50 (converted)
[13] = sc, 10 mg/kg, route SC (subcutaneous), percentage receptor occupancy, ex-vivo autoradiography, striatum

T4 sequence (Q14432 whole entry): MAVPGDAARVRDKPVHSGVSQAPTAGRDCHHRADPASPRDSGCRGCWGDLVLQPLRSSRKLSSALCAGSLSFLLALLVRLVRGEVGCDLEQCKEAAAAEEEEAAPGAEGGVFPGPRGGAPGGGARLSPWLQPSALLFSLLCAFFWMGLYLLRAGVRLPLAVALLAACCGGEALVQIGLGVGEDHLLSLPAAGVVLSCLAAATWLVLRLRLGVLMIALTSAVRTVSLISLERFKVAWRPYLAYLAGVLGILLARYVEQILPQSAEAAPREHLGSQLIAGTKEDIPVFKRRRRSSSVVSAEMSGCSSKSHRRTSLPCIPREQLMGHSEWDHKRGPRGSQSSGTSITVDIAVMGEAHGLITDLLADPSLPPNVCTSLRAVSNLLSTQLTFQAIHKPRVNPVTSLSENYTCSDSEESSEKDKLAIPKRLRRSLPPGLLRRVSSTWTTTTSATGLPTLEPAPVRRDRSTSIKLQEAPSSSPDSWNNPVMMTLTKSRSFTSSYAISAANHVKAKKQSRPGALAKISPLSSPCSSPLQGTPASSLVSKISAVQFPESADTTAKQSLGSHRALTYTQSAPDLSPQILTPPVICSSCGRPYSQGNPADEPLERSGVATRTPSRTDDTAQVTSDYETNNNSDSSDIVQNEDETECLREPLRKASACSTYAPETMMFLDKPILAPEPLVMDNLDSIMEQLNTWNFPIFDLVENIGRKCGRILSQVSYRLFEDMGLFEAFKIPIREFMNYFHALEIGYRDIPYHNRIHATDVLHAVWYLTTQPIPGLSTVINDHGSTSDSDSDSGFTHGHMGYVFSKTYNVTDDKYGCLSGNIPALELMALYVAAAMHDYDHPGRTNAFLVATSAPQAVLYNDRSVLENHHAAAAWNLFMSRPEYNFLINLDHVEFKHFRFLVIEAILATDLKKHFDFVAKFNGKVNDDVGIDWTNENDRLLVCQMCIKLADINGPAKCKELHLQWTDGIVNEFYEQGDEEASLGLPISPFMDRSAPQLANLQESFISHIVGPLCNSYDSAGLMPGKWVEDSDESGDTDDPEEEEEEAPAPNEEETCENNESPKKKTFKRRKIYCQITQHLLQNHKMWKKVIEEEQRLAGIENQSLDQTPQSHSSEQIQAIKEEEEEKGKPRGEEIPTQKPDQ
T2 sequence (O00408 whole entry): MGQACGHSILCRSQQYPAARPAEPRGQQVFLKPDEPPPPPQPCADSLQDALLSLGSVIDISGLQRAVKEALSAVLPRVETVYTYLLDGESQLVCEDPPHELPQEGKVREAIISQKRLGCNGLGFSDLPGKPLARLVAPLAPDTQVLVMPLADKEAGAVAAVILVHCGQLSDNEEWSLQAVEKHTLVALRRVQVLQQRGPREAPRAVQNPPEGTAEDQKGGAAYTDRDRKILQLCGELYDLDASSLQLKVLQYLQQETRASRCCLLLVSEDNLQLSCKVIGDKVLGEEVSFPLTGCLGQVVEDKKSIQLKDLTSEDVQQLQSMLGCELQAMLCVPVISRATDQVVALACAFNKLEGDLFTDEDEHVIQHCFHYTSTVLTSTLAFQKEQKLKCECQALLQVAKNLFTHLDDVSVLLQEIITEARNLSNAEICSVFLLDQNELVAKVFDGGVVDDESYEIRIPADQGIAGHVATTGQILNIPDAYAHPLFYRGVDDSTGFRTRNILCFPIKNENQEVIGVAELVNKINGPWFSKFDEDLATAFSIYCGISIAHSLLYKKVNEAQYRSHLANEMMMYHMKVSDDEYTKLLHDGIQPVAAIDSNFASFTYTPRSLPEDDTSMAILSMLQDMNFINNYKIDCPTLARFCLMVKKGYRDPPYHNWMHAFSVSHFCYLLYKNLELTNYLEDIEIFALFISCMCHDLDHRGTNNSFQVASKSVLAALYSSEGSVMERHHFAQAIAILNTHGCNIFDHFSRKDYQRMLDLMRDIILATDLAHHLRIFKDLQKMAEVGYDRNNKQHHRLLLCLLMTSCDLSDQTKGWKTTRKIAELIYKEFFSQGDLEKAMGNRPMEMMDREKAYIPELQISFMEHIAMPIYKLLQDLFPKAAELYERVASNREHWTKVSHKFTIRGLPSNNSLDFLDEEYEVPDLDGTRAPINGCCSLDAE
T3 sequence (Q9Y233 267-1055): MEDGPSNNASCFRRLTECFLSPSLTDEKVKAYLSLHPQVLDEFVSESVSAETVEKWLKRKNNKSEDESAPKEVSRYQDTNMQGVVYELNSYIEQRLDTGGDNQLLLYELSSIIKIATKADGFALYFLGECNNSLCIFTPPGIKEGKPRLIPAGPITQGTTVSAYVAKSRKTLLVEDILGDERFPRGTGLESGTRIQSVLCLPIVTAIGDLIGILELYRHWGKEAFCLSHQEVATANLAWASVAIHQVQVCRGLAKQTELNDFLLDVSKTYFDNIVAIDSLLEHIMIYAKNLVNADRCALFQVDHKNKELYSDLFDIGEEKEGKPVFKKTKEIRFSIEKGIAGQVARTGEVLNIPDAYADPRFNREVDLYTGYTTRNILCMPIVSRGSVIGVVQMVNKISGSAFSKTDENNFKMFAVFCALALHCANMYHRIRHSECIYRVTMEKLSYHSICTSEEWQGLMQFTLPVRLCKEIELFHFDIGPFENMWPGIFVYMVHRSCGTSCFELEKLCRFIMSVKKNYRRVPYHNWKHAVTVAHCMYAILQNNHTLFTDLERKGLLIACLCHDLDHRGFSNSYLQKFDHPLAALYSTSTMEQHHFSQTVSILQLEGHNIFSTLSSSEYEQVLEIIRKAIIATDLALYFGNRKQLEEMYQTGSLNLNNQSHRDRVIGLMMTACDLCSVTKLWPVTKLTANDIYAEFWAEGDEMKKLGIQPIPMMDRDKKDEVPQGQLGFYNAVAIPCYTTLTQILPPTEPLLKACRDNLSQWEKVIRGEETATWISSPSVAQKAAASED

| SMILES | receptor occupancy at 10 mg/kg (PDE2A; [4]) [%] | IC50 [1, 5] [nM] | Emax ([1]; human recombinant PDE2A) [%] | Emax [1] [%] | IC50 [1, 6] [nM] | Emax [2, 7] [%] | IC50 [2, 8] [nM] | IC50 ([3]; read-out: pIC50 (converted)) [µM] | Emax ([3]; read-out: Emax) [%] | IC50 ([1]; hPDE2A pIC50) [nM] | Emax [2, 11] [%] | IC50 [2, 12] [nM] | further results |
| --- | --- | --- | --- | --- | --- | --- | --- | --- | --- | --- | --- | --- | --- |
| C[C@@H]1CCN(C(=O)c2cc(Cl)cnc2C(F)(F)F)C[C@H]1c1cc(C(F)F)nc2ncnn12 [Compound 39] | -8 | 8.32 | 98 | 98 | 8.32 | 75 | 3090 | > 10 | 16 | – | – | – | – |
| Cc1cc([C@@H]2CN(C(=O)c3ccc4occc4c3)CC[C@H]2C)n2ncnc2n1 [Compound 6] | 67 | – | – | 99 | – | 100 | 17.8 | 0.676 | 97 | 1.62 | – | – | IC50 [1, 9]: 1.62 nM |
| Cc1cc(C(=O)N2CC[C@@H](C)[C@H](c3cc(C(F)F)nc4ncnn34)C2)cc(C)c1F [Compound 115] | 23 | – | – | 100 | – | 99 | 77.6 | 1.95 | 87 | 1.05 | – | – | IC50 [1, 9]: 1.05 nM |
| Cc1cc(C(=O)N2[C@H]3CC[C@H](c4cc(C(F)F)nc5ncnn45)[C@@H]2CC3)cc(C(F)F)n1 [Compound 294] | – | – | – | 99 | 10.7 | – | – | > 10 | 14 | – | 81 | 2090 | receptor occupancy at 10 mg/kg (PDE2A; [10]): 17% |
| Cc1cc(C(=O)N2CC[C@@H](C)[C@](F)(c3cc(C(F)F)nc4ncnn34)C2)cc(C)n1 [Compound 82] | 28 | 33.9 | 101 | 101 | 33.9 | 18 | > 10000 | > 10 | 9 | – | – | – | – |
| Cc1cc(C(=O)N2CC[C@@H](C)[C@H](c3cc(C)nc4ncnn34)C2)cc(C)n1 [Compound 1a] | 37 | – | – | 100 | – | 98 | 12.9 | 2.09 | 65 | 0.794 | – | – | IC50 [1, 9]: 0.794 nM |
| Cc1cnc(Cl)cc1C(=O)N1CC[C@@H](C)[C@H](c2cc(C(F)F)nc3ncnn23)C1 [Compound 27] | 34 | 0.912 | 100 | 100 | 0.912 | 88 | 1100 | > 10 | 37 | – | – | – | – |
| Cc1cc(C(=O)N2CC[C@H](C)[C@@H](c3cc(C(F)F)nc4ncnn34)C2)cc(C)n1 [Compound 220] | -8 | – | – | – | – | – | – | > 10 | – | 302 | 41 | > 10000 | ED50 (PDE2A; po, read-out: PDE Occupancy ED50): > 80 mg/kg; hPDE2A Emax [1]: 54; Emax [3]: 8% |
| Cc1cc2ccc(C(=O)N3[C@H]4CC[C@H](c5cc(C(F)F)nc6ncnn56)[C@@H]3CC4)cn2c1 [Compound 307] | – | – | – | 99 | – | – | – | – | 88 | 9.12 | 97 | – | receptor occupancy at 10 mg/kg (PDE2A; [10]): 8%; IC50 ([2]; hPDE10A2 or rPDE10A2 pIC50, human clone by default (no (r) mark)): 603 nM; IC50 [3]: 1.48 µM |
| C[C@@H]1CCN(C(=O)c2nc3ccccc3o2)C[C@H]1c1cc(C(F)F)nc2ncnn12 [Compound 47] | 5 | 2.51 | 99 | 99 | 2.51 | 92 | 646 | 3.39 | 80 | – | – | – | – |
| C[C@@H]1CCN(C(=O)c2cccc(C#N)c2)C[C@H]1c1cc(C(F)F)nc2ncnn12 [Compound 197] | 8 | 10.2 | 98 | 98 | 10.2 | 96 | 209 | > 10 | 42 | – | – | – | – |
| Cc1cc([C@H]2CN(C(=O)c3ccc4ncsc4c3)CC[C@@H]2C)n2ncnc2n1 [Compound 2b] | – | – | – | 100 | – | 95 | 269 | > 10 | 31 | 19.1 | – | – | receptor occupancy at 10 mg/kg (PDE2A; [13]): 3%; IC50 [1, 9]: 19.1 nM |
| O=C(c1ccc2ncsc2c1)N1[C@H]2CC[C@@H]1[C@H](c1cc(C(F)F)nc3ncnn13)CC2 [Compound 25b] | – | – | – | – | – | – | – | – | – | – | – | – | PDE2 Occupancy at 10 mg/kg (PDE2A; [10]): −9; hPDE2A Emax [1]: 92; hPDE2A pIC50 [1]: 5.96; hPDE2A Emax ([1]; human recombinant PDE2A): 92; hPDE2A pIC50 ([1]; human recombinant PDE2A, 10 μM cGMP substrate): 5.96; hPDE10A2 Emax ([2]; human clone (h), default): 28; hPDE10A2 pIC50 ([2]; human clone (h), default): <5; hPDE3B Emax [3]: 37 |
| Cc1c(C(=O)N2[C@H]3CC[C@H](c4cc(C(F)F)nc5ncnn45)[C@@H]2CC3)oc2ccccc12 [Compound 273] | – | – | – | 100 | 2.34 | 96 | 977 | 0.813 | 96 | – | 96 | 977 | receptor occupancy at 10 mg/kg (PDE2A; 10 mg/kg, route SC (subcutaneous), percentage receptor occupancy, ex-vivo autoradiography, striatum): 65% |
| C[C@@H]1CCN(C(=O)c2cc(Cl)ncc2F)C[C@H]1c1cc(C(F)F)nc2ncnn12 [Compound 54] | 39 | 4.17 | 100 | 100 | 4.17 | 89 | 661 | 9.55 | 51 | – | – | – | – |
| Cc1cc(C(=O)N2[C@H]3CC[C@H](c4cc(C(F)F)nc5ncnn45)[C@@H]2CC3)cc(OC(F)F)n1 [Compound 293] | – | – | – | 100 | 11.2 | – | – | 3.47 | 80 | – | 90 | 1020 | receptor occupancy at 10 mg/kg (PDE2A; [10]): 6% |
| COc1cc(C(=O)N2CC[C@@H](C)[C@H](c3cc(C)nc4ncnn34)C2)c(C(F)(F)F)cn1 [Compound 37] | -13 | – | – | 100 | 17.4 | 93 | 427 | 8.91 | 52 | – | – | – | – |
| Cc1nc2cc(C(=O)N3CC[C@@H](C)[C@H](c4cc(C(F)F)nc5ncnn45)C3)ccc2o1 [Compound 188] | – | 8.51 | 99 | 99 | 8.51 | 98 | 209 | 1.55 | 87 | – | – | – | receptor occupancy at 10 mg/kg (PDE2A; [13]): 2% |
| Cc1cc(C(=O)N2CC[C@@H](C)[C@H](c3cc(C(F)F)nc4ncnn34)C2)c(F)c(OC2CC2)n1 [Compound 392] | 46 | – | – | 99 | 1.12 | – | – | 0.447 | 97 | – | 93 | 263 | – |
| Cc1cc(C)cc(C(=O)N2[C@H]3CC[C@H](c4cc(C(F)F)nc5ncnn45)[C@@H]2CC3)c1 [Compound 302] | – | – | – | 101 | 6.46 | – | – | 7.94 | 59 | – | 93 | 891 | receptor occupancy at 10 mg/kg (PDE2A; [10]): 1% |
